According to patent US10208033B2, “β-carboline, dihydro-β-carboline and tetrahydro-β-carboline alkaloid derivatives and preparation methods same and use in aspects of preventing and treating plant viruses, fungicides and insecticides” (NANKAI UNIVERSITY, priority 2013, dated 2019):

What was measured:
[1] = molecular target: monoamine oxidase (MAO-A) (Homo sapiens, UniProt P21397); conditions: cited from earlier work
[2] = system: tobacco mosaic virus (TMV); assay: Anti-TMV in vitro effect (half-leaf soaking); assay type: cell-based, tobacco mosaic virus (host Nicotiana tabacum L.cv.Xanthi NN); conditions: Tobacco mosaic virus, read-out: Relative inhibition rate (%) In vitro activity
[3] = system: tobacco mosaic virus (TMV); assay: Anti-TMV in vivo inactivation; set-up: species or system tobacco mosaic virus (host Nicotiana tabacum L.cv.Xanthi NN); conditions: Tobacco mosaic virus, read-out: Relative inhibition rate (%) In vivo inactivation
[4] = system: tobacco mosaic virus (TMV); assay: Anti-TMV in vivo therapeutic effect; set-up: species or system tobacco mosaic virus (host Nicotiana tabacum L.cv.Xanthi NN); conditions: Tobacco mosaic virus, read-out: Relative inhibition rate (%) In vivo therapy
[5] = system: tobacco mosaic virus (TMV); assay: Anti-TMV in vivo protective effect; set-up: species or system tobacco mosaic virus (host Nicotiana tabacum L.cv.Xanthi NN); conditions: Tobacco mosaic virus, read-out: Relative inhibition rate (%) In vivo protection
cucumber fusarium wilt = assay: Fungicidal (bactericidal) activity in vitro, PDA colony diameter; assay type: cell-based; conditions: Fusarium, 96 h; 50 mg/kg
Cercospora arachidicola = assay: as above; assay type: cell-based; conditions: Mycosphaerella arachidis, 96 h; 50 mg/kg
Macrophoma kawatsukai = assay: as above; assay type: cell-based; conditions: 50 mg/kg
Alternaria solani = assay: as above; assay type: cell-based; conditions: Alternaria solani, 96 h; 50 mg/kg
Fusarium graminearumt = assay: microbe, parasite or virus in culture; assay type: cell-based; conditions: Fusarium, 96 h, read-out: Bactericidal activity (%) Fusarium graminearumt
potato late blight = assay: microbe, parasite or virus in culture; assay type: cell-based; conditions: Phytophthora infestans, 96 h, read-out: Bactericidal activity (%) potato late blight
Sclerotinia scleotiorum = assay: Fungicidal (bactericidal) activity in vitro, PDA colony diameter; assay type: cell-based; conditions: Sclerotinia, 96 h; 50 mg/kg
Botrytis cinerea = assay: as above; assay type: cell-based; conditions: Botrytis cinerea, 96 h; 50 mg/kg
Rhizoctonia solani = assay: as above; assay type: cell-based; conditions: Rhizoctonia solani, 96 h; 50 mg/kg
Phytophthora capsici = assay: as above; assay type: cell-based; conditions: Phytophthora capsici, 96 h; 50 mg/kg
Fusarium fujikuroi = assay: as above; assay type: cell-based; conditions: Fusarium fujikuroi, 96 h; 50 mg/kg
Rhizoctonia cereali = assay: as above; assay type: cell-based; conditions: Rhizoctonia, 96 h; 50 mg/kg
Bipolaria maydis = assay: organism not typed; assay type: cell-based; conditions: read-out: Bactericidal activity (%) Bipolaria maydis
[6] = system: Colletotrichum orbiculare; assay: Fungicidal (bactericidal) activity in vitro, PDA colony diameter; assay type: cell-based; conditions: Colletotrichum orbiculare, 96 h; 50 mg/kg
armyworms = assay type: in vivo; conditions: concentration 600 mg/kg
cotton bollworms = assay: whole plant or invertebrate; conditions: Helicoverpa armigera, in Gossypium hirsutum, read-out: Cotton bollworm Mortality (%)
Description: Experimental method of cotton bollworms: feed and drug mixing method: measure 3 mL of prepared solution and add it to about 27 g of newly prepared feed, thereby obtaining needed concentration through dilution by 10 times.

mosquito larvae = assay: whole plant or invertebrate; conditions: Culex pipiens, 24 h, read-out: Mosquito larvae Mortality (%)
Outline: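 Early fourth-instar Culex pipiens pallens larvae from an indoor colony, 10 per beaker, exposed to test compound at 5 ppm in water, diluted from a 1000 ppm acetone mother solution. Blank: water containing 0.5 mL test solvent.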

HL60 = conditions: cited from earlier work
corn borers = assay: whole plant or invertebrate; conditions: read-out: Corn borer Mortality (%)

Sequence of monoamine oxidase (MAO-A) (P21397 whole entry, species assumed): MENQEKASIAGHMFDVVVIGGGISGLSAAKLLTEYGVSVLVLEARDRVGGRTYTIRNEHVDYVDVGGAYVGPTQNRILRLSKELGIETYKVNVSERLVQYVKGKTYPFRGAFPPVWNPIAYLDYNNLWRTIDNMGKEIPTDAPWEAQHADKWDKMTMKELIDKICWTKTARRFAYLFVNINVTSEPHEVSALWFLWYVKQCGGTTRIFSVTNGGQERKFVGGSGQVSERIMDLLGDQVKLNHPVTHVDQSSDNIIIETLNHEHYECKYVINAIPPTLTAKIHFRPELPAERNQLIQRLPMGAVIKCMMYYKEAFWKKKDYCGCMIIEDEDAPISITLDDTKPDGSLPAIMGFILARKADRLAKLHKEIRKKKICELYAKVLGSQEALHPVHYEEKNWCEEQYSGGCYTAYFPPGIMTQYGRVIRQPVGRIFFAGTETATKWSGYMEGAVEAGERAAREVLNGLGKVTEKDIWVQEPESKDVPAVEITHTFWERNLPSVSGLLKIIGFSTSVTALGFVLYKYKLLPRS

COc1ccc2c3c([nH]c2c1)C(C)=NCC3 [Harmaline]
inhibition of monoamine oxidase (MAO-A) [1]: reversible inhibitor

COc1ccc2c(c1)[nH]c1c(C)nccc12 [Harmine]
inhibition at 100 µg/mL ([2]; treatment dose 100 μg/mL): 20% | inhibition at 500 µg/mL ([2]; treatment dose 500 μg/mL): 44.6% | inhibition at 100 µg/mL ([3]; treatment dose 100 μg/mL): 11.4% | inhibition at 500 µg/mL ([3]; treatment dose 500 μg/mL): 40.5% | inhibition at 100 µg/mL ([4]; treatment dose 100 μg/mL): 15.8% | inhibition at 500 µg/mL ([4]; treatment dose 500 μg/mL): 38.6% | inhibition at 100 µg/mL ([5]; treatment dose 100 μg/mL): 16.3% | inhibition at 500 µg/mL ([5]; treatment dose 500 μg/mL): 42.4% | inhibition of growth at 50 mg/kg (cucumber fusarium wilt): 28.6% | inhibition of growth at 50 mg/kg (Cercospora arachidicola): 57.1% | inhibition at 50 mg/kg (Macrophoma kawatsukai): 35.3% | inhibition of growth at 50 mg/kg (Alternaria solani): 83.3% | inhibition of growth at 50 mg/kg (Fusarium graminearumt): 92.9% | inhibition of growth at 50 mg/kg (potato late blight): 35% | inhibition of growth at 50 mg/kg (Sclerotinia scleotiorum): 48% | inhibition of growth at 50 mg/kg (Botrytis cinerea): 59.1% | inhibition of growth at 50 mg/kg (Rhizoctonia solani): 21.4% | inhibition of growth at 50 mg/kg (Phytophthora capsici): 60.6% | inhibition of growth at 50 mg/kg (Fusarium fujikuroi): 57.1% | inhibition of growth at 50 mg/kg (Rhizoctonia cereali): 71.9% | inhibition at 50 mg/kg (Bipolaria maydis): 31.6% | inhibition of growth at 50 mg/kg [6]: 57.1% | Armyworm Mortality (%) (armyworms): 20% | mortality at 600 mg/kg (cotton bollworms): 15% | mortality at 10 mg/kg (mosquito larvae): 45% | cytotoxicity to leukemia cell line HL60 (HL60): shows cytotoxicity | mortality at 600 mg/kg (corn borers): 15%
